# Patent US20100029604A1, “ANTIBACTERIAL COMBINATION AND ITS USE” (priority 2007, published 2010)
# Where two headings read alike, the source gives them in different places.
# Columns and labels:
# [1] = tested on: Klebsiella oxytoca ATCC 51983; assay: MIC broth microdilution (Example 2); settings: ATCC51983
# [2] = tested on: Salmonella spp. DHA-1; assay: MIC, characterised β-lactamase producing strain (Example 5, Tables 5-7); type: cell-based
# Experimental: (§1) The MIC experiments were performed in duplicate in 96-well microtiter plates using CAMHB. Serial twofold dilutions of each antibiotic either alone or in combination with constant concentration ratio of a β-lactamase inhibitor (2:1) were prepared in CAMHB. The bacterial suspension with final inoculum 10^5 CFU/mL was transferred to the test medium containing the antibacterial substances. In each well of a 96-well microtiter plate was combined 50 μL of bacterial inoculum, 50 μL of antibiotic dilutions (or media for determination of the MIC of the antibiotic in the absence of test compound). Each plate included 4 wells with no bacterial inoculum (negative control) and 4 wells with no test compound and no antibiotic (positive control). The plates were incubated at 35° C. for 24 h. Purity check and colony counts on each inoculum suspension was performed to ensure that the final inoculum concentration routinely obtained closely approximates 5×10^5 CFU/mL. In addition the assay is routinely monitored by testing standard antibiotics and ensuring that MIC values are within the recommended ranges for the respective strains.
# (§2) This test permits comparisons to be made between bacterial growth in the presence of antibiotic alone and bacterial growth in the presence of both an antibiotic and a novel (test) compound.
# [3] = tested on: Klebsiella pneumoniae TEM-30; assay: as above; type: cell-based
# Experimental: as §1, §2
# [4] = tested on: Klebsiella pneumoniae TEM-1, SHV-5; assay: as above; type: cell-based
# Experimental: as §1, §2
# [5] = tested on: Escherichia coli TEM-34; assay: as above; type: cell-based
# Experimental: as §1, §2
# [6] = tested on: Pseudomonas aeruginosa NPS-1; assay: as above; type: cell-based
# Experimental: as §1, §2
# [7] = tested on: Klebsiella pneumoniae ATCC 700603; assay: MIC broth microdilution (Example 2); settings: Klebsiella pneumoniae ATCC 700603 producing SHV-18
# [8] = tested on: Klebsiella pneumoniae TEM-1 hyperproduced; type: cell-based
# Experimental: as §1, with “Serial twofold dilutions of each antibiotic either alone or in combination with constant concentration ratio of a β-lactamase inhibitor (2:1) were prepared in CAMHB.” left out
# as §2
# [9] = tested on: E. coli SHV-5; assay: Synergy MIC, inhibitor at 4 μg/mL (Example 4); type: cell-based; settings: SHV-5, class A, inhibitor constant 4 μg/mL
# [10] = tested on: Escherichia coli TEM-50; assay: MIC, characterised β-lactamase producing strain (Example 5, Tables 5-7); type: cell-based
# Experimental: as §1, with “Serial twofold dilutions of each antibiotic either alone or in combination with constant concentration ratio of a β-lactamase inhibitor (2:1) were prepared in CAMHB.” left out
# as §2
# [11] = tested on: Escherichia coli TEM-6; assay: as above; type: cell-based
# Experimental: as §1, with “Serial twofold dilutions of each antibiotic either alone or in combination with constant concentration ratio of a β-lactamase inhibitor (2:1) were prepared in CAMHB.” left out
# as §2
# [12] = tested on: Klebsiella pneumoniae TEM-31; assay: as above; type: cell-based
# Experimental: as §1, with “Serial twofold dilutions of each antibiotic either alone or in combination with constant concentration ratio of a β-lactamase inhibitor (2:1) were prepared in CAMHB.” left out
# as §2
# [13] = tested on: Proteus mirabilis TEM-52; assay: as above; type: cell-based
# Experimental: as §1, with “Serial twofold dilutions of each antibiotic either alone or in combination with constant concentration ratio of a β-lactamase inhibitor (2:1) were prepared in CAMHB.” left out
# as §2
# [14] = tested on: Klebsiella pneumoniae LAT-1; assay: as above; type: cell-based
# Experimental: as §1, with “Serial twofold dilutions of each antibiotic either alone or in combination with constant concentration ratio of a β-lactamase inhibitor (2:1) were prepared in CAMHB.” left out
# as §2
# [15] = tested on: Escherichia coli TEM-20; assay: as above; type: cell-based
# Experimental: as §1, with “Serial twofold dilutions of each antibiotic either alone or in combination with constant concentration ratio of a β-lactamase inhibitor (2:1) were prepared in CAMHB.” left out
# as §2
# [16] = tested on: Pseudomonas aeruginosa PSE-1; assay: as above; type: cell-based
# Experimental: as §1, with “Serial twofold dilutions of each antibiotic either alone or in combination with constant concentration ratio of a β-lactamase inhibitor (2:1) were prepared in CAMHB.” left out
# as §2
# [17] = tested on: Escherichia coli SHV-2; assay: as above; type: cell-based
# Experimental: as §1, with “Serial twofold dilutions of each antibiotic either alone or in combination with constant concentration ratio of a β-lactamase inhibitor (2:1) were prepared in CAMHB.” left out
# as §2
# [18] = tested on: Pseudomonas aeruginosa LCR-1; assay: as above; type: cell-based
# Experimental: as §1, with “Serial twofold dilutions of each antibiotic either alone or in combination with constant concentration ratio of a β-lactamase inhibitor (2:1) were prepared in CAMHB.” left out
# as §2
# [19] = tested on: Klebsiella pneumoniae TEM-1, SHV; assay: as above; type: cell-based
# Experimental: as §1, with “Serial twofold dilutions of each antibiotic either alone or in combination with constant concentration ratio of a β-lactamase inhibitor (2:1) were prepared in CAMHB.” left out
# as §2
# [20] = tested on: Escherichia coli TEM-7; assay: as above; type: cell-based
# Experimental: as §1, with “Serial twofold dilutions of each antibiotic either alone or in combination with constant concentration ratio of a β-lactamase inhibitor (2:1) were prepared in CAMHB.” left out
# as §2
# [21] = tested on: Escherichia coli TEM-5; assay: as above; type: cell-based
# Experimental: as §1, with “Serial twofold dilutions of each antibiotic either alone or in combination with constant concentration ratio of a β-lactamase inhibitor (2:1) were prepared in CAMHB.” left out
# as §2
# [22] = tested on: Aeromonas hydrophila AER-1; assay: as above; type: cell-based
# Experimental: as §1, §2
# [23] = tested on: Escherichia coli OXA-4; assay: as above; type: cell-based
# Experimental: as §1, §2
# [24] = tested on: Escherichia coli TEM-32; assay: as above; type: cell-based
# Experimental: as §1, §2
# [25] = Table 6, LK-157 at constant 4 μg/mL in combination
# [26] = Table 7, combination at constant concentration ratio (2:1)
smiles,measurement,setting,value
CO/N=C(\C(=O)N[C@@H]1C(=O)N2C(C(=O)O)=C(COC(C)=O)CS[C@H]12)c1csc(N)n1 [cefotaxime],MIC,[1],2 to 8 µg/mL
same,MIC,"[2]; Table 6, Salmonella spp. DHA-1, LK-157 at constant 4 μg/mL in combination",32 µg/mL
same,MIC,"[3]; Table 6, Klebsiella pneumoniae TEM-30, LK-157 at constant 4 μg/mL in combination",0.031 µg/mL
same,MIC,"[4]; Table 6, Klebsiella pneumoniae TEM-1, SHV-5, LK-157 at constant 4 μg/mL in combination",32 µg/mL
same,MIC,"[5]; Table 6, Escherichia coli TEM-34, LK-157 at constant 4 μg/mL in combination",0.031 µg/mL
same,MIC,"[6]; Table 6, Pseudomonas aeruginosa NPS-1, LK-157 at constant 4 μg/mL in combination",16 µg/mL
same,susceptibility of the strain to the antibiotic,[7],susceptible
same,MIC,[8]; [25],0.063 µg/mL
same,MIC,[9],> 25.6 µg/mL
same,MIC,"[10]; Table 6, Escherichia coli TEM-50, LK-157 at constant 4 μg/mL in combination",8 µg/mL
same,MIC,"[11]; Table 6, Escherichia coli TEM-6, LK-157 at constant 4 μg/mL in combination",0.5 µg/mL
same,MIC,"[12]; Table 6, Klebsiella pneumoniae TEM-31, LK-157 at constant 4 μg/mL in combination",0.063 µg/mL
same,MIC,"[13]; Table 6, Proteus mirabilis TEM-52, LK-157 at constant 4 μg/mL in combination",16 µg/mL
same,MIC,"[14]; Table 6, Klebsiella pneumoniae LAT-1, LK-157 at constant 4 μg/mL in combination",4 µg/mL
same,MIC,"[15]; Table 6, Escherichia coli TEM-20, LK-157 at constant 4 μg/mL in combination",2 µg/mL
same,MIC,"[16]; Table 6, Pseudomonas aeruginosa PSE-1, LK-157 at constant 4 μg/mL in combination",16 µg/mL
same,MIC,"[17]; Table 6, Escherichia coli SHV-2, LK-157 at constant 4 μg/mL in combination",4 µg/mL
same,MIC,"[18]; Table 6, Pseudomonas aeruginosa LCR-1, LK-157 at constant 4 μg/mL in combination",64 µg/mL
same,MIC,[19]; [25],4 µg/mL
same,MIC,"[20]; Table 6, Escherichia coli TEM-7, LK-157 at constant 4 μg/mL in combination",0.25 µg/mL
same,MIC,"[21]; Table 6, Escherichia coli TEM-5, LK-157 at constant 4 μg/mL in combination",0.063 µg/mL
CC(C)(O/N=C(\C(=O)N[C@@H]1C(=O)N2C(C(=O)[O-])=C(C[n+]3ccccc3)CS[C@H]12)c1csc(N)n1)C(=O)O [ceftazidime],MIC,[1],32 to 64 µg/mL
same,MIC,"[22]; Table 7, Aeromonas hydrophila AER-1, combination at constant concentration ratio (2:1)",0.25 µg/mL
same,MIC,"[23]; Table 7, Escherichia coli OXA-4, combination at constant concentration ratio (2:1)",0.5 µg/mL
same,MIC,"[24]; Table 7, Escherichia coli TEM-32, combination at constant concentration ratio (2:1)",0.25 µg/mL
same,susceptibility of the strain to the antibiotic,[7],resistant
same,MIC,[8]; [26],0.25 µg/mL
same,MIC,"[10]; Table 7, Escherichia coli TEM-50, combination at constant concentration ratio (2:1)",8 µg/mL
same,MIC,"[11]; Table 7, Escherichia coli TEM-6, combination at constant concentration ratio (2:1)",≧128 μg/mL
same,MIC,"[12]; Table 7, Klebsiella pneumoniae TEM-31, combination at constant concentration ratio (2:1)",0.25 µg/mL
same,MIC,"[13]; Table 7, Proteus mirabilis TEM-52, combination at constant concentration ratio (2:1)",4 µg/mL
same,MIC,"[14]; Table 7, Klebsiella pneumoniae LAT-1, combination at constant concentration ratio (2:1)",8 µg/mL
same,MIC,"[15]; Table 7, Escherichia coli TEM-20, combination at constant concentration ratio (2:1)",2 µg/mL
same,MIC,"[16]; Table 7, Pseudomonas aeruginosa PSE-1, combination at constant concentration ratio (2:1)",2 µg/mL
same,MIC,"[17]; Table 7, Escherichia coli SHV-2, combination at constant concentration ratio (2:1)",2 µg/mL
same,MIC,"[18]; Table 7, Pseudomonas aeruginosa LCR-1, combination at constant concentration ratio (2:1)",4 µg/mL
same,MIC,[19]; [26],8 µg/mL
same,MIC,"[20]; Table 7, Escherichia coli TEM-7, combination at constant concentration ratio (2:1)",32 µg/mL
same,MIC,"[21]; Table 7, Escherichia coli TEM-5, combination at constant concentration ratio (2:1)",4 µg/mL
CO/N=C(\C(=O)N[C@@H]1C(=O)N2C(C(=O)[O-])=C(C[N+]3(C)CCCC3)CS[C@H]12)c1csc(N)n1 [cefepime],MIC,"[22]; Aeromonas hydrophila AER-1, functional group 2c, LK-157 in combination constant 4 μg/mL",0.5 µg/mL
same,MIC,"[2]; Salmonella spp. DHA-1, functional group 1, LK-157 in combination constant 4 μg/mL",1 µg/mL
same,MIC,"[23]; Escherichia coli OXA-4, functional group 2d, LK-157 in combination constant 4 μg/mL",0.5 µg/mL
same,MIC,"[3]; Klebsiella pneumoniae TEM-30, functional group 2br, LK-157 in combination constant 4 μg/mL",0.125 µg/mL
same,MIC,"[24]; Escherichia coli TEM-32, functional group 2br, LK-157 in combination constant 4 μg/mL",0.125 µg/mL
same,MIC,"[4]; Klebsiella pneumoniae TEM-1, SHV-5, functional group 2b, 2e, LK-157 in combination constant 4 μg/mL",16 µg/mL
same,MIC,"[5]; Escherichia coli TEM-34, functional group 2br, LK-157 in combination constant 4 μg/mL",0.063 µg/mL
same,MIC,"[6]; Pseudomonas aeruginosa NPS-1, functional group 2a, LK-157 in combination constant 4 μg/mL",8 µg/mL
same,MIC,[9],25.6 µg/mL
same,MIC,"[10]; Escherichia coli TEM-50, functional group 2be, LK-157 in combination constant 4 μg/mL",32 µg/mL
same,MIC,"[11]; Escherichia coli TEM-6, functional group 2be, LK-157 in combination constant 4 μg/mL",4 µg/mL
same,MIC,"[12]; Klebsiella pneumoniae TEM-31, functional group 2br, LK-157 in combination constant 4 μg/mL",0.125 µg/mL
same,MIC,"[13]; Proteus mirabilis TEM-52, functional group 2be, LK-157 in combination constant 4 μg/mL",16 µg/mL
same,MIC,"[14]; Klebsiella pneumoniae LAT-1, functional group 1, LK-157 in combination constant 4 μg/mL",0.125 µg/mL
same,MIC,"[15]; Escherichia coli TEM-20, functional group 2be, LK-157 in combination constant 4 μg/mL",4 µg/mL
same,MIC,"[16]; Pseudomonas aeruginosa PSE-1, functional group 2c, LK-157 in combination constant 4 μg/mL",32 µg/mL
same,MIC,"[17]; Escherichia coli SHV-2, functional group 2be, LK-157 in combination constant 4 μg/mL",2 µg/mL
same,MIC,"[18]; Pseudomonas aeruginosa LCR-1, functional group 2d, LK-157 in combination constant 4 μg/mL",128 µg/mL
same,MIC,"[19]; functional group 2b, unknown, LK-157 in combination constant 4 μg/mL",4 µg/mL
same,MIC,"[20]; Escherichia coli TEM-7, functional group 2be, LK-157 in combination constant 4 μg/mL",16 µg/mL
same,MIC,"[21]; Escherichia coli TEM-5, functional group 2be, LK-157 in combination constant 4 μg/mL",0.5 µg/mL
